Assays:
small human bronchi = assay: Relaxation of small human bronchi, with and without 2-APB pre-treatment
From the text: More recent studies have lead to the belief that they instead block the TRPC receptor.

[1] = tested on: human isolated airway preparations (bronchus) contracted with LTD4; assay: LTD4-induced contraction of isolated human bronchus preparation (force transducer), remaining contraction after exposure to test substance; settings: for effectiveness in relaxing broncho-constriction in comparison to capsazepine: LTD4 as broncho-contracting agent, test system of Example 1
Description: Dissection and mounting of lung tissue preparations. Lung tissue was obtained from patients undergoing lobectomia or pulmectomia due to lung carcinoma. The tissue was placed in a dissection chamber continuously perfused with 10 ml min^−1 of a physiological saline solution (PSS) at room temperature. An airway was identified in the cut part of the lobe, and a bronchus of 10-20 mm length and 1-2 mm diameter was obtained. The bronchus was cut into rings of a width of about 2-3 mm. Each bronchial ring was cleaved to obtain an about rectangular oblong preparation, one end of which was tied to a small steel hook connected to a force transducer, while the other end of the preparation was attached to a fixed hook. This is followed by a period of adjustment, as described below. The preparation was mounted in an atmosphere containing […] and 6% of CO2.
Experimental chamber. The experimental chamber has a a volume of 5 ml. It is perfused with PSS at a rate of 3 ml min^−1. Two preparations are mounted in the chamber, and measurements on them are performed in parallel. For mechanical tensioning each force transducer (AME 801, SensoNor A/S, Horten, Norway) is connected to a micrometer screw. The substances to be tested, the reference substance (capsazepine), and transmitter (LTD4) are injected upstream of the preparation(s).
Materials. PPS (physiological saline solution, in mM): NaCl, 117; KCl, 4.87; MgSO4, 0.60; NaHCO3, 25.0; CaCl2, 1.60; glucose, 5.23. The solution is saturated with a mixture of 94% oxygen and 6% carbon dioxide, giving a pH of 7.40±0.05 in the experimental chamber. All substances are prepared as stock solution dissolved in the vehicles ethanol or DMSO. Leukotriene D4 (LTD4; Keyman Ltd.): 10 μl of a 100 μM ethanol stock solution. Capsazepine (Sigma Aldrich): 10 μl of a 0.1 M ethanol stock solution. Substance to be tested: 10-100 μl of a 0.01-0.1 M ethanol or DMSO stock solution. Solution for establishing the passive tension level: calcium-free PSS+2 mM EGTA+20 mM caffeine. To exclude effects by the test substance vehicle, ethanol or DMSO, respectively, were added during the entire experiment except during the presence of test substance.
An exemplary test is shown in FIG. 1 in which capital letters indicate interference with the test system. The material for the preparation was a bronchus (inner diameter about 1 mm) from a occasional smoker but with the epithelium intact. Adjustment and stretch. After mounting as described above the preparation is allowed to adjust with a low passive tone in the experimental chamber. The composition of the gas is changed to 94% (v/v) of oxygen. After a short adjustment period, PSS with 10 nM LTD4 is added to the experimental chamber upstream of the preparation (A). The preparation is stretched repeatedly (B) until it exerts a contraction force of around 150 mg. When the contraction has levelled off, leukotriene-free solution is administered for 1 hour (C), resulting in a relaxation. A second injection of 10 nM LTD4 (D) makes the preparation return to the tensioned state. At the peak tension leukotriene-free solution is again administered (E). After a third injection of 10 nM LTD4 (F) the preparation returns to the tensioned state. At the peak, PSS with 10 μM capsazepine (G) is added, resulting in a relaxation. After 1 h exposure to capsazepine, LTD4 is added, resulting in a contraction (H). In comparison with the control LTD4 contraction (F), a substantially weaker contraction is now observed (H). […]

[2] = tested on: guinea pig airway preparations; settings: cited from earlier work
VR1 = VR1 (Rattus norvegicus, UniProt O35433); settings: capsaicin-induced effects in rodents; cited from earlier work
Sequence of VR1 (O35433 whole entry): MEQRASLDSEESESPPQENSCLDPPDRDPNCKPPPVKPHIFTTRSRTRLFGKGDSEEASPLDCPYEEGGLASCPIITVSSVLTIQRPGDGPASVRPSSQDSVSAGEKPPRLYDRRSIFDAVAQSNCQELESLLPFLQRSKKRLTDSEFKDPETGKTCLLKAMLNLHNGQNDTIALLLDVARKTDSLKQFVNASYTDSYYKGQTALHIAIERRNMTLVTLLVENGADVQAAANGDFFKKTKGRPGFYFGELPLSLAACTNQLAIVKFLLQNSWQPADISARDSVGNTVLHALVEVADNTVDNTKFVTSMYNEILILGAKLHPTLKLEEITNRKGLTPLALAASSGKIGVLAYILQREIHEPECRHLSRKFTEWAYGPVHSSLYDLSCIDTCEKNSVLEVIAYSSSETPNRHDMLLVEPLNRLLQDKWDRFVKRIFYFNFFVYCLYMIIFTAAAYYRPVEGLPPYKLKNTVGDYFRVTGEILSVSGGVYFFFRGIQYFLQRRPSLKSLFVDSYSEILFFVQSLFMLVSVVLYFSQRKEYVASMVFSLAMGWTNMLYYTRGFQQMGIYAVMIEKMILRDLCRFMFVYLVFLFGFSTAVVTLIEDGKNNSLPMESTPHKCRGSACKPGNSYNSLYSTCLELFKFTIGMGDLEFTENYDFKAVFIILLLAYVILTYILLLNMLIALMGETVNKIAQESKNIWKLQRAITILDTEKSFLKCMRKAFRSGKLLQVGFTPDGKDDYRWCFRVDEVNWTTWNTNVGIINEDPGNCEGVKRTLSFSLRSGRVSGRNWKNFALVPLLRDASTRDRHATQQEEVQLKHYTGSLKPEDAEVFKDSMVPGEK

Question: With `NCCOB(c1ccccc1)c1ccccc1` [2-APB, 2-amino-ethoxydiphenylborate] as the compound, how does the “relaxation of small human bronchi” value (small human bronchi) read?
Answer: relaxes small human bronchi

Question: For `C=C(C)[C@]12C[C@@H](C)[C@@]34O[C@](Cc5ccccc5)(O[C@@H]1[C@@H]3C=C(COC(=O)Cc1cc(I)c(O)c(OC)c1)C[C@]1(O)C(=O)C(C)=C[C@@H]41)O2` [I-RTX, iodo-resiniferatoxin], which “inhibition of leukotriene-induced bronchoconstriction” value ([1]; human bronchial preparations, found by the present inventors) is on record?
Answer: did not inhibit

Question: What about the “potency of inhibition of capsaicin-induced bronchoconstriction relative to capsazepine” value [2] of the same compound?
Answer: 10-30 times

Question: And the “VR1 antagonist potency relative to capsazepine” value (VR1)?
Answer: at least 40 times

Question: With `Oc1cc2c(cc1O)CN(C(=S)NCCc1ccccc1)CCC2` [RES 1-83] as the compound, how does the “effectiveness in relaxing broncho-constriction in comparison to capsazepine” value (from here on “effectiveness”) [1] read?
Answer: substantially less effective

Question: With `Oc1cc2c(cc1O)CN(C(=S)NCc1ccc(C(F)(F)F)cc1)CCC2` [RES 3-22] as the compound, how does the “effectiveness” value [1] read?
Answer: about equally effective

Question: For `Oc1c(Cl)cc2c(c1Cl)CCCN(C(=S)NCCc1ccc(Cl)cc1)C2` [RES 5-21], which “effectiveness” value [1] is on record?
Answer: substantially more effective

Question: For `Oc1cc2c(cc1O)CN(C(=S)NCCc1ccc(Cl)cc1)CCC2` [capsazepine], which “remaining contraction (test force) relative to that caused by the control force” value ([1]; 10 μM capsazepine, 1 h exposure, 10 nM LTD4, bronchus from occasional smoker) is on record?
Answer: about 55%

Question: For `Cn1c(=O)c2[nH]cnc2n(C)c1=O` [theophylline], which “relaxation after pre-treatment of small human bronchi with 2-APB” value (small human bronchi; pre-treatment with 2-APB) is on record?
Answer: not reduced

From patent US20060040254A1, “Method for identifying bronchoconstriction relaxing substances” (priority 2004, published 2006)
